Source: patent publication US4122184A, “Benzimidazole insecticides” (priority 1977, dated 1978)
Several values for one entry are separate records, joined by “and”; a condition that tells them apart may be missing. Identical values can stand only once.

Legend:
Boll Weevil = assay: Field trial (first summer), topical; format: in vivo, Anthonomus grandis
In short: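 Field trial from the first summer in which 1 µl of test solution holding a set number of micrograms of benzimidazole was applied topically to larvae or adult insects. Mortality at a given route and concentration was scored on a 0–9 scale.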

Milkweed Beetle = assay: Field trial (first summer), contact; format: in vivo; settings: 125 ppm
Source text: (§1) Infested plants are placed in 6 oz. prescription bottles filled with water to keep them from wilting. Cellucotton is wrapped around the plant stem and squeezed into the bottle neck to prevent the insects from drowning.
(§2) A DeVilbiss Special Atomizer (5004) is used at 10 psi to spray the test plant with different concentrations of compounds. The atomizer is held at arm's length to prevent blowing the insects off the host plant. After treating, the bottles are placed on a table covered with brown wrapping paper to catch the dead insects as they drop from the plant. The plants are spaced so the leaves or plants are not touching one another.
(§3) The results are read at 24, 48, and 72 hours when applicable. The rating scale is 0 to 9 where 0 = 0-10 percent and 9 = 91-100 percent mortality.
(§4) During the previous summer similar field trials were conducted employing the same tests as heretofore but with some additional species of insects not included in the later tests. The results listed below are for tests in which an insect mortality was established by a given application route and at a given concentration in a particular test. The same 0 - 9 scoring system is used as is the designation of compounds by alphabetical symbols.

Picnic Beetle = assay: Field trial (first summer), contact; format: in vivo; settings: 250 ppm
Source text: as §1, §2, §3, §4

[1] = system: Red-Legged Grasshopper Adults; assay: Field trial, contact poison test; format: in vivo
In short: (§5)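 Mortality after direct spraying was scored at 24, 48 and 72 hours where applicable, using a 0–9 rating tied to 10% bands. Plants bearing insects received atomized compound at 10 psi over a range of concentrations.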

Bean Leaf Beetle = assay: Field trial, contact poison test; format: in vivo
In short: as §5

[2] = system: Southern Corn Rootworm Adults; assay: Field trial, contact poison test; format: in vivo
In short: as §5

Aphids - Tulip Tree = assay: Field trial, stomach poison test; format: in vivo
In short: (§6)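 Spray (10 psi) or dip leaves from infested plants in test solution; air-dry; put in Petri dish; add 5 or 10 insects; score mortality 0–9 at 24/48/72 h. 1–2 reps, usually 2–3 rates.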

Aphids - Apple = assay: Field trial, stomach poison test; format: in vivo
In short: as §6

Alfalfa Weevil Larvae = assay: Field trial, stomach poison test; format: in vivo
In short: as §6

Meadow Spittlebug = assay: Field trial, stomach poison test; format: in vivo
In short: as §6

Aphids - Sour Gum = assay: Field trial, stomach poison test; format: in vivo
In short: as §6

[3] = system: Potato Flea Beetle Adults; assay: Field trial, stomach poison test; format: in vivo
In short: as §6

Asparagus Beetles Adults = assay: Field trial, stomach poison test; format: in vivo
In short: as §6

Melon Aphid = Melon Aphid Test; format: in vivo, Aphis gossypii (Hemiptera); settings: 24 h
Source text: Four blue hubbard squash seeds are planted per container in vermiculite and the containers watered from the bottom. After 6 days, the two weakest plants are cut off and one cotyledon and the primary leaves are removed from each of the two remaining plants. The remaining cotyledon is infested with 100 melon aphids from a stock colony by pinning the cotyledon against an aphid-infested squash cotyledon from the colony and allowing the aphids to transfer. After transfer, the colony leaf is removed. Forty-eight hours later, the infested leaves are sprayed to wetting with formulations containing graded amounts of the insecticide using a DeVilbiss atomizer at 10 psi held at 12-15 inches from the plant. Controls consist of two infested, unsprayed squash plants and two infested plants sprayed to wetting with a formulation containing 100 ppm malathion as a reference standard. The mortality is estimated 24 hours after spraying by observation using a 10 power dissecting microscope. The same rating scale is used as before.

Mexican Bean Beetle = Mexican Bean Beetle Test; format: in vivo, Epilachna varivestis (Coleoptera); settings: 48 h
Description: Cuttings of four six-day old Bountiful snap bean plants containing two leaves with approximately 5 square inches of leaf surface, are placed in water. The leaves are sprayed to wetting with about 5-10 ml. of a formulation containing a pre-determined level of the test compound. Half of the formulation is sprayed on the top surface and half on the bottom surface of the leaf using a DeVilbiss atomizer at 10 psi held at a distance of about 18 inches from the leaf. After the leaves have dried, they are cut from the stem and placed separately in petri dishes. Ten third instar, nonmolting Mexican bean beetle larvae grown on Bountiful snap beans are placed on each leaf. Controls consist of two leaves sprayed with 5 ml. of a 500 ppm malathion formulation (reference standard), two leaves sprayed with the formulation without the active ingredient and two leaves are held as untreated controls. After 48 hours, a mortality count is made and the amount of feeding noted. Moribund larvae are counted as dead.

House Fly = assay: Housefly (Stomach) Test; format: in vivo, Musca domestica (Diptera); settings: 24 h
Description: Ten chilled house flies are taken from the rearing cage and placed in a covered petri dish. Sugar cubes treated with 0.2 ml. of a formulation containing a specified level of the insecticide are placed in the petri dish one hour after the flies have been removed from the chill room. Controls consist of sugar cubes treated with 0.2 ml. of deionized water and cubes treated with 0.2 ml. of a formulation containing 500 ppm of malathion. Mortality counts are made 24 hours later. The same rating scale is used as before.

Compound	insect mortality rating (Boll Weevil; .078125 μg/μl)	insect mortality rating (Milkweed Beetle)	insect mortality rating (Picnic Beetle)	average mortality rating ([1]; 10 ppm)	average mortality rating ([1]; 25 ppm)	average mortality rating ([1]; 50 ppm)	average mortality rating (Bean Leaf Beetle; 25 ppm)	average mortality rating (Bean Leaf Beetle; 50 ppm)	average mortality rating (Bean Leaf Beetle; 100 ppm)	average mortality rating ([2]; 25 ppm)	average mortality rating ([2]; 50 ppm)	average mortality rating ([2]; 100 ppm)	average mortality rating (Aphids - Tulip Tree; 25 ppm)	average mortality rating (Aphids - Tulip Tree; 50 ppm)	average mortality rating (Alfalfa Weevil Larvae; 125 ppm)	average mortality rating (Alfalfa Weevil Larvae; 250 ppm)	average mortality rating (Alfalfa Weevil Larvae; 500 ppm)	average mortality rating (Asparagus Beetles Adults; 5 ppm)	average mortality rating (Asparagus Beetles Adults; 10 ppm)	average mortality rating (Asparagus Beetles Adults; 25 ppm)	other results
O=[N+]([O-])c1cc(C(F)(F)F)cc2nc(C(F)(F)F)[nH]c12 [A, 2,6-bis(trifluoromethyl)-4-nitrobenzimidazole]	9 (91-100 percent mortality)	9 (91-100 percent mortality)	9 (91-100 percent mortality)	3	4	4	0 (0-10 percent)	0 (0-10 percent)	0 (0-10 percent)	4	6	8	8	5	7	7	7	0 (0-10 percent)	3	9 (91-100 percent mortality)	average mortality rating (Aphids - Tulip Tree; 100 ppm): 8; average mortality rating (Aphids - Apple; 25 ppm): 1; average mortality rating (Aphids - Apple; 50 ppm): 4; average mortality rating (Aphids - Apple; 100 ppm): 4; average mortality rating (Meadow Spittlebug; 10 ppm): 2; average mortality rating (Meadow Spittlebug; 25 ppm): 0 (0-10 percent); average mortality rating (Meadow Spittlebug; 50 ppm): 1; average mortality rating (Aphids - Sour Gum; 25 ppm): 7; average mortality rating (Aphids - Sour Gum; 50 ppm): 9 (91-100 percent mortality); average mortality rating (Aphids - Sour Gum; 100 ppm): 9 (91-100 percent mortality); average mortality rating ([3]; 10 ppm): 9 (91-100 percent mortality); average mortality rating ([3]; 25 ppm): 6; average mortality rating ([3]; 50 ppm): 9 (91-100 percent mortality); average mortality rating ([3]; 100 ppm): 9 (91-100 percent mortality)
mixture of methyl 2,6-bis(trifluoromethyl)-4-nitro-1-benzimidazolecarboxylate and methyl 2,5-bis(trifluoromethyl)-7-nitro-1-benzimidazolecarboxylate	9 (91-100 percent mortality)	9 (91-100 percent mortality)	9 (91-100 percent mortality)				0 (0-10 percent)	0 (0-10 percent)	1	5 and 3		9 (91-100 percent mortality)			7	6	3	5	5	9 (91-100 percent mortality)	mortality rating (Melon Aphid; 25 ppm): 0 (0-10); mortality rating (Melon Aphid; 50 ppm): 2 (21-30); mortality rating (Melon Aphid; 100 ppm): 4 (41-50); mortality rating (Melon Aphid; 250 ppm): 9 (91-100); mortality rating (Melon Aphid; 500 ppm): 9 (91-100); mortality rating (Melon Aphid; 1000 ppm): 9 (91-100); mortality rating (Mexican Bean Beetle; 5 ppm): 0 (0-10); mortality rating (Mexican Bean Beetle; 10 ppm): 9 (91-100); mortality rating (Mexican Bean Beetle; 25 ppm): 9 (91-100); mortality rating (Mexican Bean Beetle; 50 ppm): 9 (91-100); mortality rating (Mexican Bean Beetle; 100 ppm): 9 (91-100); mortality rating (Mexican Bean Beetle; 250 ppm): 9 (91-100); mortality rating (Mexican Bean Beetle; 500 ppm): 9 (91-100); mortality rating (Mexican Bean Beetle; 1000 ppm): 9 (91-100); mortality rating (House Fly; 250 ppm): 2 (21-30); mortality rating (House Fly; 500 ppm): 5.5; mortality rating (House Fly; 1000 ppm): 8.5; average mortality rating (Meadow Spittlebug; 100 ppm): 5
CCCCCCOC(=O)n1c(C(F)(F)F)nc2c([N+](=O)[O-])cc(C(F)(F)F)cc21 [E, n-hexyl 2,6-bis(trifluoromethyl)-4-nitro-1-benzimidazolecarboxylate]		9 (91-100 percent mortality)	9 (91-100 percent mortality)	3	8	7	0 (0-10 percent)	0 (0-10 percent)	8	4	9 (91-100 percent mortality)	8	6	6	1	4	3	3	5	9 (91-100 percent mortality)	mortality rating (Melon Aphid; 5 ppm): 1.5; mortality rating (Melon Aphid; 100 ppm): 9.5; insect mortality rating (Boll Weevil; .15625 μg/μl): 9 (91-100 percent mortality); mortality rating (Mexican Bean Beetle; 5 ppm): 2.5; mortality rating (Mexican Bean Beetle; 10 ppm): 7.5; average mortality rating (Aphids - Tulip Tree; 100 ppm): 8; average mortality rating (Aphids - Apple; 25 ppm): 5; average mortality rating (Aphids - Apple; 50 ppm): 5; average mortality rating (Aphids - Apple; 100 ppm): 7; average mortality rating (Meadow Spittlebug; 10 ppm): 1; average mortality rating (Meadow Spittlebug; 25 ppm): 2; average mortality rating (Meadow Spittlebug; 50 ppm): 3; average mortality rating (Meadow Spittlebug; 100 ppm): 1; average mortality rating (Aphids - Sour Gum; 25 ppm): 1; average mortality rating (Aphids - Sour Gum; 50 ppm): 3; average mortality rating (Aphids - Sour Gum; 100 ppm): 5; average mortality rating ([3]; 10 ppm): 9 (91-100 percent mortality); average mortality rating ([3]; 25 ppm): 9 (91-100 percent mortality); average mortality rating ([3]; 50 ppm): 7; average mortality rating ([3]; 100 ppm): 8
